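Where inhibition never reached the appropriate level, the endpoint shown equals the highest concentration tested. Otherwise, values were interpolated linearly from a five-concentration, 48-hour dose response in 96-well plates. Abbreviation: GI50, concentration required for 50% inhibition of growth.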 The source made the active and inactive calls. Rule as the data show it: active = GI50 up to about 1.1 µM and inactive = higher.
What was measured:
Assay in all cases: inhibition of tumour cell growth, NCI panel, 48 h
[1] = tested on: 786-0
[2] = tested on: A498
[3] = tested on: A549
[4] = tested on: ACHN
[5] = tested on: CAKI-1
[6] = tested on: CCRF-CEM
[7] = tested on: COLO 205
[8] = tested on: DU-145
[9] = tested on: EKVX
[10] = tested on: HCC 2998
[11] = tested on: HCT-116
[12] = tested on: HCT-15
[13] = tested on: HL-60
[14] = tested on: HOP-62
[15] = tested on: HT-29
[16] = tested on: Hs-578T
[17] = tested on: IGROV-1
[18] = tested on: K562
[19] = tested on: KM12
[20] = tested on: LOX IMVI
[21] = tested on: M14
[22] = tested on: MCF7
[23] = tested on: MDA-MB-231
[24] = tested on: MDA-MB-435
[25] = tested on: MDA-N
[26] = tested on: MOLT-4
[27] = tested on: Malme-3M
[28] = tested on: NCI-H226
[29] = tested on: NCI-H23
[30] = tested on: NCI-H460
[31] = tested on: NCI-H522
[32] = tested on: NCI/ADR-RES
[33] = tested on: OVCAR-3
[34] = tested on: OVCAR-4
[35] = tested on: OVCAR-5
[36] = tested on: OVCAR-8
[37] = tested on: PC-3
[38] = tested on: RPMI-8226
[39] = tested on: RXF 393
[40] = tested on: SF-268
[41] = tested on: SF-295
[42] = tested on: SF-539
[43] = tested on: SK-MEL-28
[44] = tested on: SK-MEL-2
[45] = tested on: SK-MEL-5
[46] = tested on: SK-OV-3
[47] = tested on: SN12C
[48] = tested on: SNB-19
[49] = tested on: SNB-75
[50] = tested on: SR
[51] = tested on: SW-620
[52] = tested on: T47D
[53] = tested on: TK-10
[54] = tested on: U-251
[55] = tested on: UACC-257
[56] = tested on: UACC-62
[57] = tested on: UO-31

In the case of `O=C(O)c1cc(-c2ccc3c(O)c(O)ccc3c2)ccc1O`, the GI50 [1] is reported as 31.7 µM (inactive), the GI50 [2] is reported as 72.9 µM (inactive) and the GI50 [3] is reported as 66.4 µM (inactive). For the same molecule, the GI50 [4] was > 75 µM (inactive), the GI50 [5] was 4.34 µM (inactive) and the GI50 [6] was 12.3 µM (inactive). For the same molecule, the GI50 [7] was 24.9 µM (inactive), the GI50 [8] was > 75 µM (inactive) and the GI50 [9] was > 75 µM (inactive). The GI50 [10] was > 75 µM (inactive), the GI50 [11] was 15.8 µM (inactive) and the GI50 [12] was 41.3 µM. For the same molecule, the GI50 [13] was 16.8 µM (inactive), the GI50 [14] was > 75 µM (inactive) and the GI50 [15] was 18.6 µM (inactive). For the same molecule, the GI50 [16] was > 75 µM (inactive), the GI50 [17] was 40.5 µM (inactive) and the GI50 [18] was 13.1 µM (inactive). The GI50 [19] was 47.4 µM (inactive), the GI50 [20] was 14.1 µM (inactive) and the GI50 [21] was 20.7 µM (inactive). For the same molecule, the GI50 [22] was 13.4 µM (inactive), the GI50 [23] was 26.1 µM (inactive) and the GI50 [24] was 21.7 µM (inactive). For the same molecule, the GI50 [25] was 25.2 µM (inactive), the GI50 [26] was 12.6 µM (inactive) and the GI50 [27] was > 75 µM (inactive). The GI50 [28] was 28 µM (inactive), the GI50 [29] was 43.6 µM (inactive) and the GI50 [30] was > 7.5 µM (inactive). For the same molecule, the GI50 [31] was 38.5 µM (inactive), the GI50 [32] was 33.6 µM (inactive) and the GI50 [33] was > 75 µM (inactive). The GI50 [34] was 12.9 µM (inactive), the GI50 [35] was 12.6 µM (inactive) and the GI50 [36] was 23.1 µM (inactive). For the same molecule, the GI50 [37] was > 75 µM (inactive), the GI50 [38] was 15.9 µM (inactive) and the GI50 [39] was 17.4 µM (inactive). The GI50 [40] was > 75 µM (inactive), the GI50 [41] was 16.1 µM (inactive) and the GI50 [42] was > 75 µM (inactive). The GI50 [43] was > 75 µM (inactive), the GI50 [44] was > 75 µM (inactive) and the GI50 [45] was 34.2 µM (inactive). For the same molecule, the GI50 [46] was > 75 µM (inactive), the GI50 [47] was 14.8 µM (inactive) and the GI50 [48] was > 75 µM (inactive). For the same molecule, the GI50 [49] was > 75 µM (inactive), the GI50 [50] was 18.1 µM (inactive) and the GI50 [51] was 15 µM (inactive). For the same molecule, the GI50 [52] was > 75 µM (inactive), the GI50 [53] was > 75 µM (inactive) and the GI50 [54] was 15 µM (inactive). The GI50 [55] was 68.4 µM (inactive), the GI50 [56] was 27 µM (inactive) and the GI50 [57] was > 75 µM (inactive).

From ChEMBL document CHEMBL1201862, “PubChem BioAssay data set” (2004)
